Earlier results in patent publication US12064376B2, “Rho kinase inhibitor releasing implants and related methods of use” (priority 2020, dated 2024).

Assays:
failed descemetorhexis = conditions: patient with failed descemetorhexis
[1] = tested on: rabbit corneal endothelial damage model; conditions: freeze model, topical 0.4% or 0.8% drops BID or QID
[2] = tested on: human corneal endothelial cells (HCEC); conditions: ripasudil 0.3 to 30 μM, 48 hours, HCEC in vitro
[3] = tested on: rabbit corneal endothelial damage model; conditions: scrape model
[4] = tested on: Porcine corneal endothelial cells (CECs); conditions: 10 μM Y-27632 or 2.5 μM H-1152, 2, 24 and 48 hours
[5] = tested on: monkey model of corneal endothelial cell damage
[6] = tested on: rabbit model of corneal endothelial dysfunction; conditions: 1 mM topical, 2 drops QID three days then TID seven days
[7] = at 1 year, MCEC and ROCK inhibitor eyes
[8] = by 24 weeks, eleven patients, 1×10^6 human CECs per 300 μL with Y-27632

C[C@H]1CNCCCN1S(=O)(=O)c1cccc2cncc(F)c12 [ripasudil]
outcome of case study (failed descemetorhexis): salvaged patient | corneal haze versus controls [1]: less hazy corneas | proliferation in treated eyes [1]: better in the ROCK inhibitor treated eyes in a dose dependent fashion | wound size versus controls [1]: smaller | DNA and endothelial cell proliferation [2]: significantly enhanced | treated eyes clear ([3]; day 14, control 0/6): 5/6 | corneal thickening ([3]; no change with control): ⅓

C[C@@H](N)[C@H]1CC[C@H](C(=O)Nc2ccncc2)CC1 [Y-27632]
preserving corneal clarity (Fuch's corneal dystrophy; Fuch's corneal dystrophy, eye drop): effective | corneal thickening (Fuch's corneal dystrophy; Fuch's patients): decrease | efficacy by severity of corneal endothelial dysfunction (Fuch's corneal dystrophy; mild (central edema) versus severe (diffuse edema)): effective in mild cases (central edema) of corneal endothelial dysfunction, but not severe (diffuse edema) | cell morphology [4]: monolayer with polygonal structure and tight junctions | migration of cells from the scratch [4]: enhanced | survival and engraftment of injected cultured endothelial cells ([5]; 5×10^5 CECs in 200 μl with ROCK inhibitor, intracameral): enhanced | adverse events ([5]; MCEC with concomitant ROCK inhibitor, intracameral injection): without adverse events such as glaucoma | corneal clarity [5, 7]: clear corneas | corneal endothelial cell density [5, 7]: 2000 cells/mm^2 | number of patients with >500 cells/mm^2 (bullous keratopathy; [8]): 11 | number of patients with >1000 cells/mm^2 (bullous keratopathy; [8]): 10 | adverse events (bullous keratopathy; eleven patients): One case of steroid induced intraocular pressure (IOP) and no other adverse events | corneal thickness (bullous keratopathy; in all but 1 case, corneas became clear): < 630 μm

Cc1cncc2cccc(S(=O)(=O)N3CCCNC[C@@H]3C)c12 [H-1152]
cell morphology [4]: monolayer with polygonal structure and tight junctions | migration of cells from the scratch [4]: enhanced | corneal thickness versus controls [6]: less
